This experiment addresses T1, recombinant human GR (Homo sapiens, UniProt P04150).
T1 construct: purchased Panvera/Invitrogen P2812 (kit P2893)
T1 sequence (P04150 1-777): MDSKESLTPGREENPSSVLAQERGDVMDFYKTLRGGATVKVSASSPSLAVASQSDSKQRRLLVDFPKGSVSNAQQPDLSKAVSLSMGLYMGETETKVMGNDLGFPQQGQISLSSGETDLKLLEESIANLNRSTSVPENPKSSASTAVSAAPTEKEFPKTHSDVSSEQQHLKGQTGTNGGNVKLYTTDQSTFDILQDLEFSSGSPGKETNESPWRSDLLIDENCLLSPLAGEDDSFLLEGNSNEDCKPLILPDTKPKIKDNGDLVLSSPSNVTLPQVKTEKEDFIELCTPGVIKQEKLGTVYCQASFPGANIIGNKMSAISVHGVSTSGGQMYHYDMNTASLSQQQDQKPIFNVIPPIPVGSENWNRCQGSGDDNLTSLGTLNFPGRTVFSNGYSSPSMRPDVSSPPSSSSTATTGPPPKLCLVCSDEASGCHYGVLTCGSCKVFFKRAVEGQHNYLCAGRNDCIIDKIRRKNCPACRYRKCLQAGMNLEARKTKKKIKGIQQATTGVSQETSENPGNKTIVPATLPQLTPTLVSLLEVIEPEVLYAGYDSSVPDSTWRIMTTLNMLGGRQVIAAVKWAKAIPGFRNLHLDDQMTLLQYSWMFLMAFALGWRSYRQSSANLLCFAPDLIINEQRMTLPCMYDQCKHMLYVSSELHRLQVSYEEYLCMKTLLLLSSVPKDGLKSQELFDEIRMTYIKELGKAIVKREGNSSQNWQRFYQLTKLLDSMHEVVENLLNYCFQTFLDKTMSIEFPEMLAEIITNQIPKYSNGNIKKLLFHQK
The experiment can be described thus: Human Glucocorticoid Receptor (GR) Assay (fluorescence polarization, Panvera/Invitrogen kit). The format is binding. As to conditions: fluorescence polarization; GS Red tracer; 2 hours at room temperature; 100% control 10 μM Dexamethasone; read-out: Inhibition of GR binding, IC50. In outline:
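Fluorescence polarization competition with recombinant GR and GS Red fluorescent ligand plus stabilizing peptide and DTT in potassium phosphate/sodium molybdate/EDTA buffer with DMSO. Incubated 2 hours at room temperature in the dark; 0% control DMSO, 100% control 10 μM dexamethasone.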
What is called IC50 is the midpoint of a concentration-inhibition curve. Take `C[C@]12Cc3cnn(-c4cccc(Br)c4)c3C=C1CC[C@@H]1[C@@H]2[C@@H](O)C[C@@]2(C)[C@H]1CC[C@]2(OC(=O)c1ccco1)C(=O)SCF` [Example 71, (1R,3aS,10aR,10bS,11S,12aS)-7-(3-Bromophenyl)-1-{[(fluoromethyl)thio]carbonyl}-11-hydroxy-10a,12a-dimethyl-1,2,3,3a,3b,4,5,7,10,10a,10b,11,12,12a-tetradecaphydrocyclopenta[5,6]naphtho[1,2-f]indazol-1-yl furan-2-carboxylate]: the IC50 came out at 13 nM.

For `C=Cc1cccc(-n2ncc3c2C=C2CC[C@@H]4[C@H]([C@@H](O)C[C@@]5(C)[C@H]4CC[C@]5(OC(=O)c4ccco4)C(=O)SCF)[C@@]2(C)C3)c1` [Example 72, (1R,10aR,11S,12aS)-7-(3-Ethenylphenyl)-1-{[(fluoromethyl)thio]carbonyl}-11-hydroxy-10a,12a-dimethyl-1,2,3,3a,3b,4,5,7,10a,10b,11,12,12a-tetradecahydrocyclopenta[5,6]naphtho[1,2-f]indazol-1-yl furan-2-carboxylate], the IC50 came out at 17 nM.

As to `COCc1cc(-n2ncc3c2C=C2CC[C@@H]4[C@H]([C@@H](O)C[C@@]5(C)[C@H]4CC[C@]5(OC(=O)c4ccco4)C(=O)SCC#N)[C@@]2(C)C3)ccc1F` [Example 73, (1R,3aS,3bS,10aR,10bS,11S,12aS)-1-{[(Cyanomethyl)thio]carbonyl}-7-[4-fluoro-3-(methoxymethyl)phenyl]-11-hydroxy-10a,12a-dimethyl-1,2,3,3a,3b,4,5,7,10,10a,10b,11,12,12a-tetradecahydrocyclopenta[5,6]naphtho[1,2-f]indazol-1-yl furan-2-carboxylate], the IC50 turned out to be 6.4 nM.

Consider `COCc1cc(-n2ncc3c2C=C2CC[C@@H]4[C@H]([C@@H](O)C[C@@]5(C)[C@H]4CC[C@]5(OC(=O)c4ccco4)C(=O)SCF)[C@@]2(C)C3)ccc1F` [Example 74, (1R,3aS,3bS,10aR,10bS,11S,12aS)-7-[4-Fluoro-3-(methoxymethyl)phenyl]-1-{[(fluoromethyl)thio]carbonyl}-11-hydroxy-10a,12a-dimethyl-1,2,3,3a,3b,4,5,7,10,10a,10b,11,12,12a-tetradecahydrocyclopenta[5,6]naphtho[1,2-f]indazol-1-yl furan-2-carboxylate], for which the IC50 was 22 nM.

Consider `C[C@]12Cc3cnn(-c4ccc(F)c(CF)c4)c3C=C1CC[C@@H]1[C@@H]2[C@@H](O)C[C@@]2(C)[C@H]1CC[C@]2(OC(=O)c1ccco1)C(=O)SCC#N` [Example 75, (1R,3aS,3bS,10aR,10bS,11S,12aS)-1-{[(Cyanomethyl)thio]carbonyl}-7-[4-fluoro-3-(fluoromethyl)phenyl]-11-hydroxy-10a,12a-dimethyl-1,2,3,3a,3 b,4,5,7,10,10a,10b,11,12,12a-tetradecahydrocyclopenta[5,6]naphtho[1,2-f]indazol-1-yl furan-2-carboxylate], for which the IC50 amounted to 7.2 nM.

For the molecule `C[C@]12Cc3cnn(-c4ccc(F)c(CF)c4)c3C=C1CC[C@@H]1[C@@H]2[C@@H](O)C[C@@]2(C)[C@H]1CC[C@]2(OC(=O)c1ccco1)C(=O)SCF` [Example 76, (1R,3aS,3bS,10aR,10bS,11S,12aS)-7-[4-Fluoro-3-(fluoromethyl)phenyl]-1-{[(fluoromethyl)thio]carbonyl}-11-hydroxy-10a,12a-dimethyl-1,2,3,3a,3b,4,5,7,10,10a,10b,11,12,12a-tetradecahydrocyclopenta[5,6]naphtho[1,2]-indazol-1-yl furan-2-carboxylate], the IC50 was found to be 35 nM.

Regarding `C=CCOCc1cc(-n2ncc3c2C=C2CC[C@@H]4[C@H]([C@@H](O)C[C@@]5(C)[C@H]4CC[C@]5(OC(=O)c4ccco4)C(=O)SCC#N)[C@@]2(C)C3)ccc1F` [Example 77, (1R,3aS,3bS,10aR,10bS,11S,12aS)-1-{[(Cyanomethyl)thio]carbonyl}-7-{4-fluoro-3-[(prop-2-en-1-yloxy)methyl]phenyl}-11-hydroxy-10a,12a-dimethyl-1,2,3,3a,3b, 4,5,7,10,10a,10b,11,12,12a-tetradecahydrocyclopenta[5,6]naphtho[1,2-f]indazol-1-yl furan-2-carboxylate], the IC50 stood at 22 nM.

As to `C=CCOCc1cc(-n2ncc3c2C=C2CC[C@@H]4[C@H]([C@@H](O)C[C@@]5(C)[C@H]4CC[C@]5(OC(=O)c4ccco4)C(=O)NC)[C@@]2(C)C3)ccc1F` [Example 78, (1R,3aS,3bS,10aR,10bS,11S,12aS)-7-{4-Fluoro-3-[(prop-2-en-1-yloxy)methyl]phenyl}-11-hydroxy-10a,12a-dimethyl-1-(methylcarbamoyl)-1,2,3,3a,3b,4,5,7,10,10a,10b,11,12,12a-tetradecahydrocyclopenta[5,6]naphtho[1,2-f]indazol-1-yl furan-2-carboxylate], the IC50 turned out to be 12 nM.

On to `C[C@]12Cc3cnn(-c4ccc(F)c(CO)c4)c3C=C1CC[C@@H]1[C@@H]2[C@@H](O)C[C@@]2(C)[C@H]1CC[C@]2(OC(=O)c1ccco1)C(=O)OCC#N` [Example 79, Cyanomethyl(1R,3aS,3bS,10aR,10bS,11S,12aS)-7-[4-fluoro-3-(hydroxymethyl)phenyl]-1-[(furan-2-ylcarbonyl)oxy]-11-hydroxy-10a,12a-dimethyl-1,2,3,3a,3b,4,5,7,10,10a,10b,11,12,12a-tetradecahydrocyclopenta[5,6]naphtho[1,2-f]indazole-1-carboxylate], for which the concentration for half-maximal inhibition (IC50) was found to be 4.2 nM.

Consider `C[C@]12Cc3cnn(-c4ccc(F)c(CO)c4)c3C=C1CC[C@@H]1[C@@H]2[C@@H](O)C[C@@]2(C)[C@H]1CC[C@]2(OC(=O)c1ccco1)C(=O)SCC#N` [Example 80, (1R,3aS,3bS,10aR,10bS,11S,12aS)-1-{[(Cyanomethyl)thio]carbonyl}-7-[4-fluoro-3-(hydroxymethyl)phenyl]-11-hydroxy-10a,12a-dimethyl-1,2,3,3a,3b,4,5,7,10,10a,10b,11,12,12a-tetradecahydrocyclopenta[5,6]naphtho[1,2]-indazol-1-yl furan-2-carboxylate], for which the IC50 was found to be 4.2 nM.

Regarding `C[C@]12Cc3cnn(-c4ccc(F)c(CO)c4)c3C=C1CC[C@@H]1[C@@H]2[C@@H](O)C[C@@]2(C)[C@H]1CC[C@]2(OC(=O)c1ccco1)C(=O)SCF` [Example 81, (1R,3aS,3bS,10aR,10bS,11S,12aS)-7-[4-Fluoro-3-(hydroxymethyl)phenyl]-1-{[(fluoromethyl)thio]carbonyl}-11-hydroxy-10a,12a-dimethyl-1,2,3,3a,3b,4,5,7,10,10a,10b,11,12,12a-tetradecahydrocyclopenta[5,6]naphtho[1,2-f]indazol-1-yl furan-2-carboxylate], the IC50 was 4.5 nM.

Consider `CSCSC(=O)[C@@]1(OC(=O)c2ccco2)CC[C@H]2[C@@H]3CCC4=Cc5c(cnn5-c5ccc(F)cc5)C[C@]4(C)[C@H]3[C@@H](O)C[C@@]21C` [Example 82, (1R,3aS,3bS,10aR,10bS,11S,12aS)-7-(4-Fluorophenyl)-11-hydroxy-10a,12a-dimethyl-1-({[(methylsulfanyl)methyl]sulfanyl}carbonyl)-1,2,3,3a,3b,4,5,7,10,10a,10b,11,12,12a-tetradecahydrocyclopenta[5,6]naphtho[1,2-f]indazol-1-yl furan-2-carboxylate], for which the IC50 was determined as 8.5 nM.

With `C[C@]12Cc3cnn(-c4ccc(F)cc4)c3C=C1CC[C@@H]1[C@@H]2[C@@H](O)C[C@@]2(C)[C@H]1CC[C@]2(OC(=O)c1ccco1)C(=O)SCSC#N` [Example 83, (1R,3aS,3bS,10aR,10bS,11S,12aS)-7-(4-Fluorophenyl)-11-hydroxy-10a,12a-dimethyl-1-{[(thiocyanatomethyl)sulfanyl]carbonyl}-1,2,3,3a,3b,4,5,7,10,10a,10b,11,12,12a-tetradecahydrocyclopenta[5,6]naphtho[1,2-f]indazol-1-yl furan-2-carboxylate], the IC50 came to 18 nM.

Turning to `C[C@]12Cc3cnn(-c4ccc(F)cc4)c3C=C1CC[C@@H]1[C@@H]2[C@@H](O)C[C@@]2(C)[C@H]1CC[C@]2(OC(=O)c1ccco1)C(=O)SCC(O)CO` (stereo partly drawn) [Example 84, (1R,3aS,3bS,10aR,10bS,11S,12aS)-1-{[(2,3-Dihydroxypropyl)sulfanyl]carbonyl}-7-(4-fluorophenyl)-11-hydroxy-10a,12a-dimethyl-1,2,3,3a,3b,4,5,7,10,10a,10b,11,12,12a-tetradecahydrocyclopenta[5,6]naphtho[1,2-f]indazol-1-yl furan-2-carboxylate], the IC50 came out at 5 nM.

Values taken from patent publication US8163724B2, “Glucocorticosteroids, processes for their preparation, pharmaceutical compositions containing them and their use in therapy” (AstraZeneca AB, priority 2007, dated 2012).
